Laboratory results published in US12428420B2, “Tricyclic heterocycles as FGFR inhibitors” (Incyte Corporation, priority 2021, dated 2025).

Tests used:
[1] = target: wild-type un-phosphorylated FGFR3 protein (Homo sapiens, UniProt P22607); assay: FGFR Enzymatic Assay (FRET peptide phosphorylation); assay type: biochemical; settings: pre-incubated for 4 hours
Method: The inhibitor potency of the exemplified compounds was determined in an enzyme discontinuous assay that measures peptide phosphorylation using FRET measurements to detect product formation. Inhibitors were serially diluted in DMSO and a volume of 0.2 μL was transferred to the wells of a 384-well plate. A 5 μL/well volume of enzyme isoforms of FGFR (-1, -2, -3 wild-type and mutant isoforms, -4) including phosphorylated and un-phosphorylated proteins diluted in assay buffer (50 mM HEPES, 10 mM MgCl2, 1 mM EGTA, 0.01% Tween-20, 5 mM DTT, pH 7.5) was added to the plate and pre-incubated with inhibitor for 5 to 15 minutes at ambient temperature. Appropriate controls (enzyme blank and enzyme with no inhibitor) were included on the plate. The reaction was initiated by the addition of a 5 μL/well volume containing both biotinylated [sequence] peptide substrate (SEQ ID NO: 1) and ATP in assay buffer. The 10 μL/well reaction concentration of the peptide substrate was 500 nM whereas the ATP concentration was maintained near or below the ATP Km. The ATP Km values were pre-determined in a separate series of experiments. The reaction plate was incubated at 25° C. for 1 hr and the reactions were ended with the addition of 5 μL/well of quench solution (50 mM Tris, 150 mM NaCl, 0.5 mg/mL BSA, pH 7.8; 45 mM EDTA, 600 nM staurosporin, with Perkin Elmer Lance Reagents at 3.75 nM Eu-antibody PY20 and 180 nM APC-Streptavidin). The plate was allowed to equilibrate for ˜10 minutes at ambient temperature before scanning on a PheraStar plate reader (BMG Labtech) instrument.
Either GraphPad prism or XLfit was used to analyze the data. The IC50 values were derived by fitting the data to a four parameter logistic equation producing a sigmoidal dose-response curve with a variable Hill coefficient. Prism equation: Y=Bottom+(Top−Bottom)/(1+10^((Log IC50−X)*Hill slope)); XLfit equation: Y=(A+((B−A)/(1+((X/C)^D)))) where X is the logarithm of inhibitor concentration and Y is the response.

[2] = test system: RT-112/84 cell line; assay: Luminescent Viability Assay (CellTiter-Glo); assay type: cell-based; settings: RT-112/84 cell line (bladder, FGFR3-TACC3), 3 days
Method: RT112 cells (cell lines and genetic profiles further detailed in Table 2) were purchased from ATCC (Manassas, VA) and maintained in RPMI, 10% FBS (Gibco/Life Technologies). To measure the effect of test compounds on the viability of cells, the cells were plated with RPMI 10% FBS (5×10^3 cells/well/in 50 μL) into black 96-well Greiner polystyrene in the presence or absence of 50 μL of a concentration range of test compounds. After 3 days, 100 μL of CellTiter-Glo Reagent (Promega) was added. Luminescence was read with a TopCount (PerkinElmer). IC50 determination was performed by fitting the curve of percent inhibition versus the log of the inhibitor concentration using the GraphPad Prism 5.0 software.

Chain of wild-type un-phosphorylated FGFR3 protein (P22607 23-806): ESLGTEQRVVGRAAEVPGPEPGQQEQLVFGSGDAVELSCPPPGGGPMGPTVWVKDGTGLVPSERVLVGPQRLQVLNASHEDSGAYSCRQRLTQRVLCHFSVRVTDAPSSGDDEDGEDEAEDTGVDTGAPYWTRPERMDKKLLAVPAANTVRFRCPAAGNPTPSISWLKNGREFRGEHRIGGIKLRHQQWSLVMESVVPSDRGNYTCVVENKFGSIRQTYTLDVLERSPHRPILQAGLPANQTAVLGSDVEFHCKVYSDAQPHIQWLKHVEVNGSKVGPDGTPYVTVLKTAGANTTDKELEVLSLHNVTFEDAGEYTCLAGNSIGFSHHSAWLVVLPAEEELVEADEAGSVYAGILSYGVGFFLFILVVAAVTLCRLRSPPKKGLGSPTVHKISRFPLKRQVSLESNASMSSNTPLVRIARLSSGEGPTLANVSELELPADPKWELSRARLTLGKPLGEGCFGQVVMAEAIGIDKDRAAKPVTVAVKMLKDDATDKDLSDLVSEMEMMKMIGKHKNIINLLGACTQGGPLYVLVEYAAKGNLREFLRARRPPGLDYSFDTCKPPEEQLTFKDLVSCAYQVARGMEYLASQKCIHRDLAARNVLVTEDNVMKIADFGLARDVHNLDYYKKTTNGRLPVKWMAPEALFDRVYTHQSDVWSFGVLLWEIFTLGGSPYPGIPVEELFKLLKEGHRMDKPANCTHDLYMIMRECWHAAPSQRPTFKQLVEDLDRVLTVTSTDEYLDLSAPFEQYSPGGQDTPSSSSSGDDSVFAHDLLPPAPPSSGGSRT

SMILES | IC50 [1] [nM] | IC50 ([2]; Homo sapiens, RT112/84, 72 h) [nM] | IC50 [2] [nM]
N#Cc1cc(Cn2cc(-c3cnc4ccn5c(CO)c(-c6c(Cl)cccc6Cl)nc5c4c3)cn2)ccn1 [Example 4, 4-((4-(2-(2,6-Dichlorophenyl)-3-(hydroxymethyl)imidazo[2,1-f][1,6]naphthyridin-9-yl)-1H-pyrazol-1-yl)methyl)picolinonitrile] | < 1 | < 10 | –
C[C@H](CO)n1cc(-c2cnc3ccn4c(CO)c(-c5c(Cl)cccc5Cl)nc4c3c2)cn1 [Example 24, (R)-2-(4-(2-(2,6-Dichlorophenyl)-3-(hydroxymethyl)imidazo[2,1-f][1,6]naphthyridin-9-yl)-1H-pyrazol-1-yl)propan-1-ol] | 1 to 5 | 10 to 50 | –
CC(C#N)n1cc(-c2cnc3ccn4c(CO)c(-c5c(Cl)cccc5Cl)nc4c3c2)cn1 (single isomer, unassigned) [17 peak 1] | < 1 | < 10 | –
N#Cc1cncc(Cn2cc(-c3cnc4ccn5c(CO)c(-c6c(Cl)cccc6Cl)nc5c4c3)cn2)c1 [Example 2, 5-((4-(2-(2,6-Dichlorophenyl)-3-(hydroxymethyl)imidazo[2,1-f][1,6]naphthyridin-9-yl)-1H-pyrazol-1-yl)methyl)nicotinonitrile] | < 1 | 10 to 50 | –
CN(C)C(=O)c1ccc(Cn2cc(-c3cnc4ccn5c(CO)c(-c6c(Cl)cccc6Cl)nc5c4c3)cn2)cn1 [Example 12, 5-((4-(2-(2,6-Dichlorophenyl)-3-(hydroxymethyl)imidazo[2,1-f][1,6]naphthyridin-9-yl)-1H-pyrazol-1-yl)methyl)-N,N-dimethylpicolinamide] | < 1 | < 10 | –
CN(C)C(=O)Cn1cc(-c2cnc3ccn4c(CO)c(-c5c(Cl)cccc5Cl)nc4c3c2)cn1 [Example 19, 2-(4-(2-(2,6-Dichlorophenyl)-3-(hydroxymethyl)imidazo[2,1-f][1,6]naphthyridin-9-yl)-1H-pyrazol-1-yl)-N,N-dimethylacetamide] | 1 to 5 | 10 to 50 | –
O=S1(=O)CCCC(n2cc(-c3cnc4ccn5c(CO)c(-c6c(Cl)cccc6Cl)nc5c4c3)cn2)C1 (single isomer, unassigned) [26 peak 1] | 1 to 5 | 10 to 50 | –
COCC(=O)N1CCC(n2cc(-c3cnc4ccn5c(CO)c(-c6c(C)cccc6Cl)nc5c4c3)cn2)CC1 [Example 21, 1-(4-(4-(2-(2-Chloro-6-methylphenyl)-3-(hydroxymethyl)imidazo[2,1-f][1,6]naphthyridin-9-yl)-1H-pyrazol-1-yl)piperidin-1-yl)-2-methoxyethan-1-one] | 1 to 5 | < 10 | –
OCc1c(-c2c(Cl)cccc2Cl)nc2c3cc(-c4cnn(CC5(F)CCOCC5)c4)cnc3ccn12 [Example 25, (2-(2,6-Dichlorophenyl)-9-(1-((4-fluorotetrahydro-2H-pyran-4-yl)methyl)-1H-pyrazol-4-yl)imidazo[2,1-J][1,6]naphthyridin-3-yl)methanol] | < 1 | < 10 | –
OCc1c(-c2c(Cl)cccc2Cl)nc2c3cc(-c4cnn(Cc5ccncn5)c4)cnc3ccn12 [Example 1, (2-(2,6-Dichlorophenyl)-9-(1-(pyrimidin-4-ylmethyl)-1H-pyrazol-4-yl)imidazo[2,1-J][1,6]naphthyridin-3-yl)methanol] | 1 to 5 | 10 to 50 | –
FC(F)c1c(-c2c(Cl)cccc2Cl)nc2c3cc(-c4cnn(C5CCOCC5)c4)cnc3ccn12 [Example 30, 2-(2,6-Dichlorophenyl)-3-(difluoromethyl)-9-(1-(tetrahydro-2H-pyran-4-yl)-1H-pyrazol-4-yl)imidazo[2,1-J][1,6]naphthyridine] | < 1 | < 10 | –
CC(CC#N)n1cc(-c2cnc3ccn4c(CO)c(-c5c(Cl)cccc5Cl)nc4c3c2)cn1 (single isomer, unassigned) [23 peak 2] | < 1 | – | 10 to 50
CC(C#N)n1cc(-c2cnc3ccn4c(CO)c(-c5c(Cl)cccc5Cl)nc4c3c2)cn1 (single isomer, unassigned) [17 peak 2] | < 1 | – | < 10
